Measured values: article PMC8900464 (Journal of medicinal chemistry, 2022)

What was measured:
[1] = tested on: P-AKT (S473), P-PRAS40 (T246), P-S6 (S240/244); experiment: Immunoblotting of P-AKT and downstream signaling in BT474 cells; assay type: cell-based; details: 24 h
total AKT (T-AKT) = experiment: Immunoblotting of total AKT in BT474 cells; assay type: cell-based; details: 24 h, western blot; for AKT (T-AKT) degradation: BT474 cells, 1, 5 and 10 μM; for AKT degradation: BT474 cells

SMILES | AKT (T-AKT) degradation (total AKT (T-AKT)) | further results
Cc1ncsc1-c1ccc(CNC(=O)[C@@H]2C[C@@H](O)CN2C(=O)[C@@H](NC(=O)COCC(=O)N2CCN(CC[C@H](NC(=O)C3(N)CCN(c4ncnc5[nH]ccc45)CC3)c3ccc(Cl)cc3)CC2)C(C)(C)C)cc1 [Compound 3, 4-Amino-N-((S)-1-(4-chlorophenyl)-3-(4-(2-(2-(((S)-1-((2S,4R)-4-hydroxy-2-((4-(4-methylthiazol-5-yl)benzyl)carbamoyl)pyrrolidin-1-yl)-3,3-dimethyl-1-oxobutan-2-yl)amino)-2-oxoethoxy)acetyl)-piperazin-1-yl)propyl)-1-(7H-pyrrolo[2,3-d]pyrimidin-4-yl)-piperidine-4-carboxamide] | most significant T-AKT degradation | downstream signaling inhibition ([1]; BT474 cells, 1, 5 and 10 μM, P-PRAS40 and P-S6, western blot): most effective inhibition of the downstream signaling
Cc1ncsc1-c1ccc(CNC(=O)[C@@H]2C[C@@H](O)CN2C(=O)[C@@H](NC(=O)CCOCCC(=O)N2CCN(CC[C@H](NC(=O)C3(N)CCN(c4ncnc5[nH]ccc45)CC3)c3ccc(Cl)cc3)CC2)C(C)(C)C)cc1 [Compound 4, 4-Amino-N-((S)-1-(4-chlorophenyl)-3-(4-(3-(3-(((S)-1-((2S,4R)-4-hydroxy-2-((4-(4-methylthiazol-5-yl)benzyl)carbamoyl)pyrrolidin-1-yl)-3,3-dimethyl-1-oxobutan-2-yl)amino)-3-oxopropoxy)-propanoyl)piperazin-1-yl)propyl)-1-(7H-pyrrolo[2,3-d]pyrimidin-4-yl)piperidine-4-carboxamide] | decreased the AKT degradation effectiveness | 
Cc1ncsc1-c1ccc(CNC(=O)[C@@H]2C[C@@H](O)CN2C(=O)[C@@H](NC(=O)CCC(=O)N2CCN(CC[C@H](NC(=O)C3(N)CCN(c4ncnc5[nH]ccc45)CC3)c3ccc(Cl)cc3)CC2)C(C)(C)C)cc1 [Compound 12, 4-Amino-N-((S)-1-(4-chlorophenyl)-3-(4-(4-(((S)-1-((2S,4R)-4-hydroxy-2-((4-(4-methylthiazol-5-yl)benzyl)carbamoyl)pyrrolidin-1-yl)-3,3-dimethyl-1-oxobutan-2-yl)amino)-4-oxobutanoyl)-piperazin-1-yl)propyl)-1-(7H-pyrrolo[2,3-d]pyrimidin-4-yl)-piperidine-4-carboxamide] | inactive at reducing the T-AKT protein level | 
Cc1ncsc1-c1ccc(CNC(=O)[C@@H]2C[C@@H](O)CN2C(=O)[C@@H](NC(=O)CCCC(=O)N2CCN(CC[C@H](NC(=O)C3(N)CCN(c4ncnc5[nH]ccc45)CC3)c3ccc(Cl)cc3)CC2)C(C)(C)C)cc1 [Compound 13, 4-Amino-N-((S)-1-(4-chlorophenyl)-3-(4-(5-(((S)-1-((2S,4R)-4-hydroxy-2-((4-(4-methylthiazol-5-yl)benzyl)carbamoyl)pyrrolidin-1-yl)-3,3-dimethyl-1-oxobutan-2-yl)amino)-5-oxopentanoyl)-piperazin-1-yl)propyl)-1-(7H-pyrrolo[2,3-d]pyrimidin-4-yl)-piperidine-4-carboxamide] | inactive at reducing the T-AKT protein level | 
Cc1ncsc1-c1ccc(CNC(=O)[C@@H]2C[C@@H](O)CN2C(=O)[C@@H](NC(=O)CCCCC(=O)N2CCN(CC[C@H](NC(=O)C3(N)CCN(c4ncnc5[nH]ccc45)CC3)c3ccc(Cl)cc3)CC2)C(C)(C)C)cc1 [Compound 14, 4-Amino-N-((S)-1-(4-chlorophenyl)-3-(4-(6-(((S)-1-((2S,4R)-4-hydroxy-2-((4-(4-methylthiazol-5-yl)benzyl)carbamoyl)pyrrolidin-1-yl)-3,3-dimethyl-1-oxobutan-2-yl)amino)-6-oxohexanoyl)-piperazin-1-yl)propyl)-1-(7H-pyrrolo[2,3-d]pyrimidin-4-yl)-piperidine-4-carboxamide] |  | downstream signaling inhibition ([1]; BT474 cells, 5 μM, western blot): significant downstream signaling inhibition; AKT degradation (total AKT (T-AKT); 5 μM): improved AKT degradation
NC1(C(=O)N[C@@H](CCN2CCN(C(=O)CNc3cccc4c3C(=O)N(C3CCC(=O)NC3=O)C4=O)CC2)c2ccc(Cl)cc2)CCN(c2ncnc3[nH]ccc23)CC1 (stereo partly drawn) [Compound 24, 4-Amino-N-((1S)-1-(4-chlorophenyl)-3-(4-((2-(2,6-dioxopiperidin-3-yl)-1,3-dioxoisoindolin-4-yl)glycyl)piperazin-1-yl)propyl)-1-(7H-pyrrolo[2,3-d]pyrimidin-4-yl)piperidine-4-carboxamide] | negligible AKT degradation | 
NC1(C(=O)N[C@@H](CCN2CCN(C(=O)CCNc3cccc4c3C(=O)N(C3CCC(=O)NC3=O)C4=O)CC2)c2ccc(Cl)cc2)CCN(c2ncnc3[nH]ccc23)CC1 (stereo partly drawn) [Compound 25, 4-Amino-N-((1S)-1-(4-chlorophenyl)-3-(4-(3-((2-(2,6-dioxopiperidin-3-yl)-1,3-dioxoisoindolin-4-yl)amino)propanoyl)piperazin-1-yl)propyl)-1-(7H-pyrrolo[2,3-d]pyrimidin-4-yl)piperidine-4-carboxamide] | negligible AKT degradation | 
NC1(C(=O)N[C@@H](CCN2CCN(C(=O)CCCCCCNc3cccc4c3C(=O)N(C3CCC(=O)NC3=O)C4=O)CC2)c2ccc(Cl)cc2)CCN(c2ncnc3[nH]ccc23)CC1 (stereo partly drawn) [Compound 29, 4-Amino-N-((1S)-1-(4-chlorophenyl)-3-(4-(7-((2-(2,6-dioxopiperidin-3-yl)-1,3-dioxoisoindolin-4-yl)amino)heptanoyl)piperazin-1-yl)propyl)-1-(7H-pyrrolo[2,3-d]pyrimidin-4-yl)piperidine-4-carboxamide] | negligible AKT degradation | 
NC1(C(=O)N[C@@H](CCN2CCN(C(=O)CCCCCCCNc3cccc4c3C(=O)N(C3CCC(=O)NC3=O)C4=O)CC2)c2ccc(Cl)cc2)CCN(c2ncnc3[nH]ccc23)CC1 (stereo partly drawn) [Compound 30, 4-Amino-N-((1S)-1-(4-chlorophenyl)-3-(4-(8-((2-(2,6-dioxopiperidin-3-yl)-1,3-dioxoisoindolin-4-yl)amino)octanoyl)piperazin-1-yl)-propyl)-1-(7H-pyrrolo[2,3-d]pyrimidin-4-yl)piperidine-4-carboxamide] | negligible AKT degradation | 
NC1(C(=O)N[C@@H](CCN2CCN(C(=O)CCOCCNc3cccc4c3C(=O)N(C3CCC(=O)NC3=O)C4=O)CC2)c2ccc(Cl)cc2)CCN(c2ncnc3[nH]ccc23)CC1 (stereo partly drawn) [Compound 31, 4-Amino-N-((1S)-1-(4-chlorophenyl)-3-(4-(3-(2-((2-(2,6-dioxopiperidin-3-yl)-1,3-dioxoisoindolin-4-yl)amino)ethoxy)propanoyl)-piperazin-1-yl)propyl)-1-(7H-pyrrolo[2,3-d]pyrimidin-4-yl)-piperidine-4-carboxamide] |  | AKT degradation (total AKT (T-AKT); 10 μM): only moderate AKT degradation
NC1(C(=O)N[C@@H](CCN2CCN(C(=O)CCOCCOCCOCCOCCOCCNc3cccc4c3CN(C3CCC(=O)NC3=O)C4=O)CC2)c2ccc(Cl)cc2)CCN(c2ncnc3[nH]ccc23)CC1 (stereo partly drawn) [Compound 39, 4-Amino-N-((1S)-1-(4-chlorophenyl)-3-(4-(1-((2-(2,6-dioxopiperidin-3-yl)-1-oxoisoindolin-4-yl)amino)-3,6,9,12,15-pentaoxaoctadecan-18-oyl)piperazin-1-yl)propyl)-1-(7H-pyrrolo[2,3-d]pyrimidin-4-yl)piperidine-4-carboxamide] | significantly decreased effectiveness in AKT degradation | 
